Where two headings read alike, the source gives them in different places.
What was measured:
[1] = in water; cited from earlier work
[2] = Rheological testing, parallel plate rheometer: viscosity and shear-thinning; assay type: physicochemical
Protocol: Thiol-modified carboxymethyl HA (CMHA-S) was synthesized as described in Lawyer et al. and Wendling et al., with a thiol modification of 0.1, 0.2, 0.4, or 0.7 μmol thiol/mg. Hydrogels were created by dissolving CMHA-S in phosphate-buffered saline (PBS; pH 7.4). The CMHA-S was disulfide crosslinked under continuous mixing with the addition of sodium hypochlorite. Rheological testing was performed using a parallel plate format rheometer with a 25 mm-diameter stainless steel geometry. Samples (5-6 ml) of hydrogel were placed in a 35 mm Petri dish, and the geometry was lowered to a gap of 5 mm. To determine viscosity and shear-thinning, the shear rate was varied from 0.1 to 10 Hz. A decreasing viscosity as shear rate increases indicates shear-thinning behavior.
Viscosity was determined as described in Example 1.

[3] = Protocol: (§1) RI was measured with a refractometer and pH was measured with a pH meter.
[4] = pH measured with a pH meter; assay type: physicochemical
Protocol: as §1

[5] = Release of therapeutic from hydrogel in medi-dialysis chamber into PBS; assay type: physicochemical; conditions: therapeutic at 1 mg/ml, over 24 hours, dialysis chamber MWCO 50 kDa, UV spectroscopy
Protocol: FIGS. 3A, 3B, 3C, and 3D show the release of therapeutic from hydrogel (“OBG”; blue circles on the graphs) or PBS (green circles on the graphs) into PBS in a medi-dialysis chamber (MWCO, 50 kDa) over time.
The release was monitored over 24 hours and compared to release of the therapeutic from solution in PBS. For this assessment, a 0.5 ml sample of hydrogel plus therapeutic or PBS plus therapeutic was placed into a medi-dialysis chamber, and the chamber was placed in a beaker containing 100 ml of PBS. The remaining amount of therapeutic in the dialysis chamber was monitored using UV spectroscopy at various time points.

[6] = LE 2.5 mg/ml in CMHA-S hydrogel
[7] = drug incorporated at 1 mg/ml in CMHA-S hydrogel
[8] = PredA 1 mg/ml in CMHA-S hydrogel
[9] = PredA 5 mg/ml in CMHA-S hydrogel
[10] = PredA 10 mg/ml in CMHA-S hydrogel

For C[C@@H]1C[C@H]2[C@@H]3CCC4=CC(=O)C=C[C@]4(C)[C@@]3(F)[C@@H](O)C[C@]2(C)[C@@]1(O)C(=O)CO [Dexamethasone, dexamethasone], the water solubility [1] is listed as “less than 0.09 mg/ml”.

With CCOC(=O)O[C@]1(C(=O)OCCl)CC[C@H]2[C@@H]3CCC4=CC(=O)C=C[C@]4(C)[C@H]3[C@@H](O)C[C@@]21C [LE, loteprednol etabonate] the “Viscosity at 2.5 Hz” value ([2]; LE 1 mg/ml in CMHA-S hydrogel) was 2.3 Pa · s, the “Viscosity at 2.5 Hz” value [2, 6] was 2.7 Pa · s and the “Viscosity at 2.5 Hz” value ([2]; LE 5 mg/ml in CMHA-S hydrogel) was 3.3 Pa · s. The RI ([3]; LE 1 mg/ml in CMHA-S hydrogel) was 1.3355, the RI [3, 6] was 1.3354 and the RI ([3]; LE 5 mg/ml in CMHA-S hydrogel) was 1.3353. The pH ([4]; LE 1 mg/ml in CMHA-S hydrogel) was 7.11, the pH [4, 6] was 7.24 and the pH ([4]; LE 5 mg/ml in CMHA-S hydrogel) was 7.55. The “release from the hydrogel compared to release from PBS” value [5] was “reduced compared to its release from PBS” and the water solubility [1] was “less than 0.001 mg/ml”.

With CN(C)CC/C=C1/c2ccccc2COc2ccc(CC(=O)O)cc21 [Olopatadine, olopatadine] the “Viscosity at 2.5 Hz” value [2, 7] was 1.1 Pa · s, the RI [3, 7] was 1.3353 and the pH [4, 7] was 7.3. For the same compound, the water solubility [1] was “about 0.03 mg/ml”.

In the case of CC(=O)OCC(=O)[C@@]1(O)CC[C@H]2[C@@H]3CCC4=CC(=O)C=C[C@]4(C)[C@H]3[C@@H](O)C[C@@]21C [PredA, prednisolone acetate], the “Viscosity at 2.5 Hz” value [2, 8] is reported as 2.0 Pa · s, the “Viscosity at 2.5 Hz” value [2, 9] is reported as 2.7 Pa · s and the “Viscosity at 2.5 Hz” value [2, 10] is reported as 3.0 Pa · s. For the same compound, the pH [4, 8] was 7.09, the pH [4, 9] was 7.13 and the pH [4, 10] was 7.17.

Reference: patent US20210290527A1, “Compositions and Methods for Treatment of Ocular Conditions” (EyeGate Pharmaceuticals, Inc., priority 2020, published 2021)
